Measurements reported in the NIST ThermoML archive (doi:10.1021/acs.jced.7b00321).

Assay: xn = mol fraction of the nth substance listed
Settings: 101 kPa, Liquid; for viscosity: Capillary tube (Ostwald / Ubbelohde) method; for mass density: Vibrating tube method

NCCNCCN [di(2-aminoethyl)amine] + CCO
Settings	mass density, 293.15 K [kg/m3]	mass density, 303.15 K [kg/m3]	mass density, 313.15 K [kg/m3]	mass density, 323.15 K [kg/m3]	viscosity, 293.15 K [mPa·s]	viscosity, 303.15 K [mPa·s]	viscosity, 313.15 K [mPa·s]	viscosity, 323.15 K [mPa·s]
x1 = 0.1	831.18	820.88	809.43	800.56	2.38	1.82	1.43	1.16
x1 = 0.1999	864.18	852.13	839.06	828.38	3.4	2.52	1.95	1.54
x1 = 0.3001	888.74	875.32	862.26	849.95	4.31	3.11	2.33	1.81
x1 = 0.4	905.98	892.48	879.84	866.96	5.06	3.57	2.64	2.03
x1 = 0.4998	918.77	905.55	893.25	881.28	5.59	3.93	2.89	2.2
x1 = 0.6001	928.75	915.84	904.57	892.92	6.05	4.19	3.06	2.31
x1 = 0.6992	936.55	924.86	913.73	903.03	6.39	4.38	3.15	2.37
x1 = 0.7998	943.08	931.95	921.49	911.41	6.61	4.53	3.26	2.45
x1 = 0.9007	948.15	937.76	928.32	918.94	6.8	4.65	3.31	2.5

NCCNCCO [N-(2-aminoethyl)ethanolamine] + CCO
Settings	mass density, 293.15 K [kg/m3]	mass density, 303.15 K [kg/m3]	mass density, 313.15 K [kg/m3]	mass density, 323.15 K [kg/m3]	viscosity, 293.15 K [mPa·s]	viscosity, 303.15 K [mPa·s]	viscosity, 313.15 K [mPa·s]	viscosity, 323.15 K [mPa·s]
x1 = 0.1003	836.01	827.72	817.72	810.06	2.27	1.78	1.41	1.13
x1 = 0.2	876.03	866.47	856.04	847.84	4.21	3.09	2.35	1.79
x1 = 0.3	908.63	898.53	888.11	880.03	8.22	5.37	3.76	2.74
x1 = 0.4	935.65	925.07	915.04	906.65	14.62	9.08	6.08	4.22
x1 = 0.4997	957.92	947.38	937.71	929.72	24.18	14.41	9.37	6.19
x1 = 0.5996	976.58	966.68	957.44	949.14	36.92	21.51	13.45	8.75
x1 = 0.6992	992.84	983.3	974.42	966.36	55.46	31.16	18.74	11.65
x1 = 0.7994	1007.09	997.81	989.49	981.48	78.97	42.47	24.16	14.94
x1 = 0.9007	1019.25	1010.53	1002.88	995.08	107.09	56.14	31.76	18.8

CC(O)CN (stereo not drawn) [1-amino-2-propanol] + CCO
Settings	mass density, 293.15 K [kg/m3]	mass density, 303.15 K [kg/m3]	mass density, 313.15 K [kg/m3]	mass density, 323.15 K [kg/m3]	viscosity, 293.15 K [mPa·s]	viscosity, 303.15 K [mPa·s]	viscosity, 313.15 K [mPa·s]	viscosity, 323.15 K [mPa·s]
x1 = 0.1009	815.54	807.78	798.04	790.57	1.69	1.35	1.1	0.9
x1 = 0.2	839.35	830.91	821.03	813.16	2.38	1.83	1.45	1.16
x1 = 0.3015	860.99	852.05	842.37	834.09	3.39	2.51	1.91	1.49
x1 = 0.3999	879.64	870.63	860.91	852.56	4.74	3.38	2.49	1.89
x1 = 0.4999	896.77	887.58	878.08	869.65	6.61	4.53	3.23	2.39
x1 = 0.5992	912.21	903.08	893.58	885.11	9.15	6.04	4.17	3.01
x1 = 0.6996	926.22	917.08	907.84	899.63	12.64	8.01	5.35	3.76
x1 = 0.7998	938.83	929.86	921.21	912.9	17.3	10.53	6.84	4.7
x1 = 0.8995	950.36	941.55	933.29	924.97	23.42	13.8	8.64	5.75

NCCCO [3-amino-1-propanol] + CCO
Settings	mass density, 293.15 K [kg/m3]	mass density, 303.15 K [kg/m3]	mass density, 313.15 K [kg/m3]	mass density, 323.15 K [kg/m3]	viscosity, 293.15 K [mPa·s]	viscosity, 303.15 K [mPa·s]	viscosity, 313.15 K [mPa·s]	viscosity, 323.15 K [mPa·s]
x1 = 0.101	820.04	812.33	802.78	795.11	1.77	1.41	1.18	0.97
x1 = 0.2008	847.98	839.91	830.23	822.21	2.7	2.05	1.63	1.32
x1 = 0.3001	871.99	863.77	854.17	846.08	4.06	2.97	2.29	1.79
x1 = 0.4006	894.28	885.95	876.32	867.97	6.22	4.43	3.25	2.49
x1 = 0.4999	914.13	905.74	896.28	887.91	9.34	6.31	4.53	3.33
x1 = 0.5994	932.46	923.63	914.45	906.05	13.88	8.89	6.17	4.35
x1 = 0.6993	948.72	940.08	931.32	922.79	19.55	12.09	8.08	5.52
x1 = 0.7999	963.35	954.73	946.49	938.29	26.29	15.91	10.18	6.82
x1 = 0.8998	975.98	967.76	959.83	951.35	32.9	19.96	12.86	8.29
